Consider three compounds from US8226965B2, “Methods of treating fungal, yeast and mold infections” (priority 2008, dated 2012).

The conditions of data set [1]: cited from earlier work.
Data set [2] has as its system Trichophyton rubrum, Trichophyton mentagrophytes and Epidermophyton floccosum. Description: Spontaneous resistance development, overall. In kind it is cell-based. Here is the method:
Phenotypically resistant isolates were tested for MICs and compared to parental MICs.

The subject of data set [3] is T. rubrum mycelia and microconidia. Description: Time-kill experiments. In kind it is cell-based, Trichophyton rubrum. The settings on record: for reduction in colony counts: 16×MIC, up to 24 hours, hyphae or microconidia in water (nongrowth). Here is the method: Time-kill experiments. […] Part of the conidial suspension was pelleted and resuspended in RPMI 1640 medium and grown for 16-18 hours overnight at room temperature to allow germination of microconidia. After germination, the hyphae were collected by centrifugation and resuspended in distilled water. […] Colony-forming units were counted after four days of incubation at 35° C.

The structures appear in SMILES notation.

Consider `CN(C/C=C/C#CC(C)(C)C)Cc1cccc2ccccc12.Cl` [Terbinafine hydrochloride], for which, in data set [1], the solubility in dichloromethane entry is on record as “freely soluble” and the solubility in methanol entry was “freely soluble”.
Take `Cc1cc(C2CCCCC2)n(O)c(=O)c1` [Ciclopirox]: the “stable resistance of recovered isolates” value in data set [2] was “none of the isolates were stably resistant”. Besides, in data set [3], the “reduction in colony counts” value is “None of the other compounds significantly reduced colony counts”. In data set [3] (FIG. 10), the “activity on nongrowing mycelia and conidia” value was “no activity against the conidial form”.
With `CN(C/C=C/C#CC(C)(C)C)Cc1cccc2ccccc12` [Terbinafine], the “stable resistance of recovered isolates” value in data set [2] is reported as “none of the isolates were stably resistant”. For the same compound, the “reduction in colony counts” value in data set [3] is listed as “None of the other compounds significantly reduced colony counts”.
